# Source: patent EP1140984B1, “SELECTIVE INHIBITORS OF MMP-12” (Aventis Pharmaceuticals Inc., priority 1998, dated 2000)
# pKi: −log10 of the molar value. Structures can show the parent of a compound that is named as a salt.
# How the values were obtained:
# [1] = target: T1, MMP-12 (Homo sapiens, UniProt P39900); assay: Determination of inhibition constant (Ki) for MMP-12 (macrophage metalloelastase), fluorogenic substrate assay, cuvette or microtiter plate; format: biochemical; details: substrate Mca-Pro-Leu-Gly-Leu-Dpa-Ala-Arg-NH2, 25°C, pH 7.6, [MMP-12] = 2 nM
# T1 construct: made in house
# T1 sequence (P39900 106-263 limits assumed): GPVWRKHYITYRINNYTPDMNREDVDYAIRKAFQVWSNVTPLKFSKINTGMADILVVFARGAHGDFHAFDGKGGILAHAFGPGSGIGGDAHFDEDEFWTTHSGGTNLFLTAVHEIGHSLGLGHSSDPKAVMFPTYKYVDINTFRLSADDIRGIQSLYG
# Description: MMP-12 (EC 3.4.24.65) was cloned, expressed and purified according to Shapiro, S.D. et al., J Biol. Chem. 268, 23824-23829 (1993). […] Aliquots of MMP-12 were stored at -70C.
# The potency of inhibitors of MMP-12 was measured using either quartz cuvettes or microtiter plates. The activity of MMP-12 was measured using a fluorogenic substrate, Mca-Pro-Leu-Gly-Leu-Dpa-Ala-Arg-NH2, Knight, C.G. et al., FEBS Lett. 296, 263-266 (1992), at 25°C in an assay buffer containing 50 mM Tris, pH 7.6, 0.2 M sodium chloride, 50 mM calcium chloride, and 0.02% Brij-35. The increase in fluorescence due to cleavage of Gly-Leu peptide bond by MMP-12 was monitored with a Perkin-Elmer LS50B Fluorimeter (λex 328 nm, λem 393 nm, excitation slit 2.5, emission slit 10) for the cuvette assay and with a Molecular Devices Fmax fluorescence plate reader (λex 320 nm, λem 405 nm) for the microtiter plate assay. Substrate and inhibitor stock solutions were made in N,N-dimethylformamide (DMF) and 0.1% HCl-DMF, respectively.
# Ki values were determined using the cuvette method by preparing a series of intermediate inhibitors solutions in 0.1% HCl-DMF and mixing the inhibitor with substrate (final concentration 2 µM) in a quartz cuvette containing 2 ml of assay buffer. MMP-12 was added to start the reaction at a concentration of 2 nM and progress curves were generated. For routine measurement of a Ki value for a reversible competitive inhibitor, the initial rates in the presence of at least four inhibitor concentrations (two concentrations above and two concentrations below the Ki) were measured [S] = 2 µM (<<Km) and [MMP-12] = 2 nM. Under these conditions, the measured Ki,app is close to the true Ki.
# Ki values were determined using the microtiter plate method in a manner similar to that described for the cuvette method with some modifications. Four different inhibitor concentrations (50 µl in assay buffer) of each compound were added to separate wells of a microtiter plate and substrate was added (100 µl) to get a final concentration of […]. MMP-12 was added to a final concentration of 2 nM (50 µl) to start the reaction. Cleavage of substrate was recorded every 30 seconds for 30 minutes and progress curves were generated.
# The Ki for a competitive inhibitor was calculated using: Vo/Vi = (1+[I]/Ki,app) and Ki = Ki,app/(1+[S]/Km), where Vo is the initial rate in the absence of inhibitor, Vi is the initial rate in the presence of inhibitor at the concentration of [I], [S] is the substrate concentration, and Km is the Michaelis constant. If slow binding is observed (i.e. if the approach to the binding equilibium is slow), the final steady-state rate rather than the initial rate is taken as Vi.
# [2] = target: T2, MMP-3 (Homo sapiens, UniProt P08254); assay: Determination of inhibition constant (Ki) for MMP-3, fluorogenic substrate assay; format: biochemical; details: substrate Mca-Pro-Leu-Gly-Leu-Dpa-Ala-Arg-NH2, 37°C, pH 7.6, [S] = 1 µM, [MMP-3] = 1 nM
# T2 construct: The active MMP-3 was obtained by treatment of proMMP-3 with trypsin; endogenous in cells; host or cells: human rheumatoid synovial fibroblasts stimulated with macrophage-conditioned medium
# T2 sequence (P08254 100-477): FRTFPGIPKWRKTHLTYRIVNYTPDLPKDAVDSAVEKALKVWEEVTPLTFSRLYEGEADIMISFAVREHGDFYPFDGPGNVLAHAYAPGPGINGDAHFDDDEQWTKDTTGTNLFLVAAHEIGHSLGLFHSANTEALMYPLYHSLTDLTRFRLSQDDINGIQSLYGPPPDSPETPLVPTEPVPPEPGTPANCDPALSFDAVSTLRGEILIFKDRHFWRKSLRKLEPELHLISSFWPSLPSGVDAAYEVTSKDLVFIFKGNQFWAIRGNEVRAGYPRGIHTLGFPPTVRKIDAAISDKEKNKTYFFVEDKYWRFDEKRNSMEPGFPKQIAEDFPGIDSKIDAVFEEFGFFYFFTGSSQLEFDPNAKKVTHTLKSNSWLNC
# Description: ProMMP-3 (EC 3.4.24.17; Stromelysin-1) was purified from culture medium of human rheumatoid synovial fibroblasts stimulated with macrophage-conditioned medium according to Okada, Y. et al., J. Biol. Chem. 261, 14245-14255 (1986). The active MMP-3 was obtained by treatment of proMMP-3 with trypsin (5 µg/mL) at 37°C for 30 minutes, followed by addition of soybean trypsin inhibitor (50 µg/mL). Aliquots of the activated MMP-3 were stored at -20°C.
# The activated MMP-3 is assayed using a fluorogenic substrate, Mca-Pro-Leu-Gly-Leu-Dpa-Ala-Arg-NH2, Knight, C.G. et al., FEBS Lett. 296, 263-266 (1992), at 37°C in an assay buffer containing 50 mM Tris, pH 7.6, 0.2 M sodium chloride, 50 mM calcium chloride, and 0.02% Brij-35. The increase in fluorescence due to cleavage of Gly-Leu peptide bond by MMP-3 was monitored with Perkin-Elmer LS50B Fluorimeter (λex 328 nm, λem 393 nm, excitation slit 2.5, emission slit 10). Substrate and inhibitor stock solutions were made in DMF and 0.1% HCI-DMF, respectively. For determination of Ki values for MMP-3 inhibitors, a series of intermediate inhibitor solutions were prepared in 0.1% HCl-DMF and 1 or 2 µL of the diluted inhibitor solution was mixed with 1 µL of 2 mM substrate solution in DMF in a quartz cuvette containing 2 mL of assay buffer. The enzyme (10 µL of 0.2 µM MMP-3 dilution in assay buffer) was added at the last to start the reaction. For routine measurement of a Ki value for a reversible, competitive inhibitor, the initial rates in the presence of at least four inhibitor concentrations (two concentrations above Ki and two concentrations below Ki) were measured using [S] = 1 µM (<< Km) and [MMP-3] = 1 nM. Under these conditions, the measured Ki, app is close to true Ki.
# The Ki for a competitive inhibitor is calculated using: v0/vi = (1 + [I]/Ki, app) and Ki = Ki, app/(1 + [S]/Km), where v0 is the initial rate in the absence of inhibitor, vi is the initial rate in the presence of inhibitor at the concentration of [I], [S] is the substrate concentration, and Km is the Michaelis constant. If slow binding is observed (i.e. if the approach to the binding equilibrium is slow), the final steady-state rate rather than the initial rate is taken as vi.
pKi [1],pKi [2],SMILES
7.85,6.35,"CSCC[C@H](NC(=O)C(S)C(C)C)C(=O)N[C@@H](Cc1ccccc1)C(=O)O (stereo in doubt) [Example 4, (S)-2-Mercapto-3-methylbutyroyl-(L)-methionyl-(L)-phenylalanine]"
7.85,5.85,"CC(C)C[C@H](NC(=O)C(S)C(C)C)C(=O)N[C@@H](Cc1ccccc1)C(=O)O (stereo in doubt) [Example 3, (S)-2-Mercapto-3-methylbutyroyl-(L)-leucyl-(L)-phenylalanine]"
6.82,5.81,"CC(C)C(S)C(=O)N[C@@H](CCCCN)C(=O)N[C@@H](Cc1ccccc1)C(=O)O (stereo in doubt) [Example 5, (S)-2-Mercapto-3-methylbutyroyl-(L)-lysyl-(L)-phenylalanine trifluoroacetic acid salt]"

# The next lines start with the compound.
SMILES,pKi [1],pKi [2]
"CC(C)[C@H](S)C(=O)N[C@@H](CCc1ccccc1)C(=O)N[C@@H](Cc1ccccc1)C(=O)O [Example 2, (S)-2-Mercapto-3-methylbutyroyl-(L)-homo-phenylalanyl-(L)-phenylalanine]",8.40,6.44
"CCCC(S)C(=O)N[C@@H](CCc1ccccc1)C(=O)N[C@@H](Cc1ccccc1)C(=O)O (some centres unmarked) [Example 1, 2-Mercapto-pentanoyl-(L)-homo-phenylalanyl-(L)-phenylalanine]",7.89,6.12
"CCCC(S)C(=O)N[C@@H](CCc1ccccc1)C(=O)N[C@@H](Cc1ccccc1)C(=O)NC (stereo partly drawn) [Example 6, (S)-2-Mercaptopentanoyl-(L)-homo-phenylalanyl-(L)-phenylalanine N-methyl amide]",7.85,7.85
"CNC(=O)[C@H](Cc1ccccc1)NC(=O)[C@H](CCc1ccccc1)NC(=O)[C@@H](S)C(C)C [Example 7, (S)-2-Mercapto-3-methylbutyroyl-(L)-homo-phenylalanyl-(L)-phenylalanine N-methyl amide]",9.22,8.00
